In ChEMBL document CHEMBL1201862, “PubChem BioAssay data set” (2004):
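Tested at 5 concentrations; 48 h exposure; 96-well plates; endpoints linearly interpolated, else capped at highest concentration. GI50: concentration for 50% inhibition of growth.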 The source made the active and inactive calls. Cut-off read from the data, not from the text of the source: active = GI50 up to about 1.1 µM and inactive = higher.

What was measured:
Assay in all cases: growth of human tumour cells (NCI), 48 h
786-0 = system: 786-0
A498 = system: A498
A549 = system: A549
DU-145 = system: DU-145
EKVX = system: EKVX
IGROV-1 = system: IGROV-1
LOX IMVI = system: LOX IMVI
MDA-N = system: MDA-N
Malme-3M = system: Malme-3M
PC-3 = system: PC-3
SF-295 = system: SF-295
SF-539 = system: SF-539
SK-MEL-28 = system: SK-MEL-28
SK-MEL-2 = system: SK-MEL-2
SK-OV-3 = system: SK-OV-3
SN12C = system: SN12C
SNB-19 = system: SNB-19
SR = system: SR
T47D = system: T47D
U-251 = system: U-251

Measured: GI50

CC(C)NC(=O)OCc1c(COC(=O)NC(C)C)c(-c2ccc[n+](COC(=O)CC(C)(C)C)c2)n2c1CCC2
inactive: 786-0 38.4 µM | A498 > 100 µM | A549 > 100 µM | DU-145 > 100 µM | EKVX > 100 µM | IGROV-1 > 100 µM | LOX IMVI 78.3 µM | MDA-N > 100 µM | Malme-3M > 100 µM | PC-3 58.5 µM | SF-295 60.5 µM | SF-539 84.9 µM | SK-MEL-28 > 100 µM | SK-MEL-2 > 100 µM | SK-OV-3 > 100 µM | SN12C 73.8 µM | SNB-19 > 100 µM | SR 71.1 µM | T47D > 100 µM | U-251 94.8 µM

Nc1nc(N)c2cc(-c3ccccc3)cnc2n1
inactive: 786-0 9.89 µM | A498 14.9 µM | A549 9.44 µM | DU-145 > 10 µM | EKVX 16.9 µM | IGROV-1 12.9 µM | LOX IMVI 12.4 µM | MDA-N 9.86 µM | Malme-3M 8.99 µM | PC-3 8 µM | SF-295 17 µM | SF-539 14.7 µM | SK-MEL-28 17.7 µM | SK-MEL-2 33 µM | SK-OV-3 81.1 µM | SN12C 12.2 µM | SNB-19 18.2 µM | SR 6.18 µM | T47D 36.8 µM | U-251 15.1 µM

CCCCCCCCCCCCN(CC(O)C(O)C(OC1OC(CO)C(O)C(O)C1O)C(O)CO)C(=O)CCCCCCCCCCC (stereo not given)
inactive: 786-0 19 µM | A498 24.7 µM | A549 23.6 µM | DU-145 20.6 µM | EKVX 18.8 µM | IGROV-1 19.9 µM | LOX IMVI 21.3 µM | MDA-N 21 µM | Malme-3M 18.5 µM | PC-3 25.2 µM | SF-295 19 µM | SF-539 39.8 µM | SK-MEL-28 17.5 µM | SK-MEL-2 23 µM | SK-OV-3 22.3 µM | SN12C 22.1 µM | SNB-19 17.9 µM | SR 33.1 µM | T47D 28.1 µM | U-251 18.6 µM

Nc1ncnc2c1ncn2C1OC(CO)C(O)C1NS(=O)(=O)c1ccccc1 (stereo not given)
inactive: 786-0 > 100 µM | A498 > 100 µM | A549 > 100 µM | DU-145 > 100 µM | EKVX > 100 µM | IGROV-1 > 100 µM | LOX IMVI > 100 µM | MDA-N > 100 µM | Malme-3M > 100 µM | PC-3 > 100 µM | SF-295 > 100 µM | SF-539 > 100 µM | SK-MEL-28 > 100 µM | SK-MEL-2 > 100 µM | SK-OV-3 > 100 µM | SN12C > 100 µM | SNB-19 > 100 µM | SR > 100 µM | T47D > 100 µM | U-251 > 100 µM

COc1ccc(C2NC(=O)Nc3c2c(=O)oc2c3ccc3ccccc32)cc1 (stereo not given)
inactive: 786-0 67 µM | A498 31.4 µM | A549 48.4 µM | DU-145 > 100 µM | EKVX 23.7 µM | IGROV-1 50.4 µM | LOX IMVI 74.6 µM | MDA-N 59.2 µM | Malme-3M 68.9 µM | PC-3 38.2 µM | SF-295 51.4 µM | SF-539 83 µM | SK-MEL-28 55.5 µM | SK-MEL-2 26.4 µM | SK-OV-3 > 100 µM | SN12C 68.7 µM | SNB-19 33.2 µM | SR 50 µM | T47D 31.1 µM | U-251 36.7 µM
